In PubChem BioAssay (NCI):
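Grown in 96-well plates, cells were treated for 48 hours with each compound at five concentrations. Insufficient inhibition: endpoint recorded as highest concentration tested. TGI is the concentration that stops growth completely.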

What was measured:
Assay in all cases: NCI tumour cell line growth inhibition, 48 h
NCI-H226 lung = tested on: NCI-H226 lung
A498 renal = tested on: A498 renal
SK-OV-3 ovarian = tested on: SK-OV-3 ovarian
HOP-18 NSCLC = tested on: HOP-18 NSCLC
OVCAR-5 ovarian = tested on: OVCAR-5 ovarian
UACC-257 melanoma = tested on: UACC-257 melanoma
SNB-75 CNS = tested on: SNB-75 CNS
SN12C renal = tested on: SN12C renal
SF-295 CNS = tested on: SF-295 CNS
SNB-19 CNS = tested on: SNB-19 CNS
NCI-H522 lung = tested on: NCI-H522 lung
IGROV1 ovarian = tested on: IGROV1 ovarian
SF-268 CNS = tested on: SF-268 CNS
MALME-3M melanoma = tested on: MALME-3M melanoma
LXFL 529 NSCLC = tested on: LXFL 529 NSCLC
MOLT-4 leukemia = tested on: MOLT-4 leukemia
NCI-H460 lung = tested on: NCI-H460 lung
HCC-2998 colon = tested on: HCC-2998 colon
OVCAR-3 ovarian = tested on: OVCAR-3 ovarian
M14 melanoma = tested on: M14 melanoma
CAKI-1 renal = tested on: CAKI-1 renal
HL-60(TB) leukemia = tested on: HL-60(TB) leukemia
SK-MEL-5 melanoma = tested on: SK-MEL-5 melanoma
K-562 leukemia = tested on: K-562 leukemia
U251 CNS = tested on: U251 CNS
M19-MEL melanoma = tested on: M19-MEL melanoma
SK-MEL-2 melanoma = tested on: SK-MEL-2 melanoma
TK-10 renal = tested on: TK-10 renal
LOX IMVI melanoma = tested on: LOX IMVI melanoma
HCT-116 colon = tested on: HCT-116 colon
DMS 273 small cell lung = tested on: DMS 273 small cell lung
KM12 colon = tested on: KM12 colon
OVCAR-4 ovarian = tested on: OVCAR-4 ovarian
786-0 renal = tested on: 786-0 renal
HOP-92 NSCLC = tested on: HOP-92 NSCLC
SK-MEL-28 melanoma = tested on: SK-MEL-28 melanoma
HCT-15 colon = tested on: HCT-15 colon
OVCAR-8 ovarian = tested on: OVCAR-8 ovarian
ACHN renal = tested on: ACHN renal
DLD-1 colon = tested on: DLD-1 colon
A549 NSCLC = tested on: A549 NSCLC
SF-539 CNS = tested on: SF-539 CNS
SR leukemia = tested on: SR leukemia
CCRF-CEM leukemia = tested on: CCRF-CEM leukemia
RPMI-8226 leukemia = tested on: RPMI-8226 leukemia
DMS 114 small cell lung = tested on: DMS 114 small cell lung
SW-620 colon = tested on: SW-620 colon
XF 498 CNS = tested on: XF 498 CNS
HT29 colon = tested on: HT29 colon
KM20L2 colon = tested on: KM20L2 colon
NCI-H23 lung = tested on: NCI-H23 lung
COLO 205 colon = tested on: COLO 205 colon
EKVX NSCLC = tested on: EKVX NSCLC
UACC-62 melanoma = tested on: UACC-62 melanoma
HOP-62 NSCLC = tested on: HOP-62 NSCLC
SNB-78 CNS = tested on: SNB-78 CNS
UO-31 renal = tested on: UO-31 renal

For CN(C)N=Nc1cn[nH]c1C(N)=O, which TGI (NCI-H226 lung) is on record?
Its TGI is > 100 µM.

And the TGI (A498 renal)?
Its TGI is > 100 µM.

What about the TGI (SK-OV-3 ovarian) of the same molecule?
The TGI was > 100 µM.

What about the TGI (HOP-18 NSCLC) of the same molecule?
The TGI was > 100 µM.

What about the TGI (OVCAR-5 ovarian) of the same molecule?
Its TGI is > 100 µM.

And the TGI (UACC-257 melanoma)?
Its TGI is > 100 µM.

And the TGI (SNB-75 CNS)?
Its TGI is > 100 µM.

And the TGI (SN12C renal)?
The TGI was > 100 µM.

And the TGI (SF-295 CNS)?
The TGI was > 100 µM.

And the TGI (SNB-19 CNS)?
Its TGI is > 100 µM.

And the TGI (NCI-H522 lung)?
Its TGI is > 100 µM.

And the TGI (IGROV1 ovarian)?
The TGI was > 100 µM.

And the TGI (SF-268 CNS)?
Its TGI is > 100 µM.

What about the TGI (MALME-3M melanoma) of the same molecule?
The TGI was > 100 µM.

What about the TGI (LXFL 529 NSCLC) of the same molecule?
Its TGI is > 100 µM.

And the TGI (MOLT-4 leukemia)?
The TGI was > 100 µM.

What about the TGI (NCI-H460 lung) of the same molecule?
The TGI was > 100 µM.

What about the TGI (HCC-2998 colon) of the same molecule?
The TGI was > 100 µM.

And the TGI (OVCAR-3 ovarian)?
Its TGI is > 100 µM.

What about the TGI (M14 melanoma) of the same molecule?
Its TGI is > 100 µM.

And the TGI (CAKI-1 renal)?
The TGI was > 100 µM.

And the TGI (HL-60(TB) leukemia)?
Its TGI is > 100 µM.

And the TGI (SK-MEL-5 melanoma)?
Its TGI is > 100 µM.

What about the TGI (K-562 leukemia) of the same molecule?
The TGI was > 100 µM.

And the TGI (U251 CNS)?
Its TGI is > 100 µM.

And the TGI (M19-MEL melanoma)?
Its TGI is > 100 µM.

What about the TGI (SK-MEL-2 melanoma) of the same molecule?
The TGI was > 100 µM.

What about the TGI (TK-10 renal) of the same molecule?
The TGI was > 100 µM.

And the TGI (LOX IMVI melanoma)?
Its TGI is > 100 µM.

What about the TGI (HCT-116 colon) of the same molecule?
The TGI was > 100 µM.

And the TGI (DMS 273 small cell lung)?
The TGI was > 100 µM.

And the TGI (KM12 colon)?
The TGI was > 100 µM.

And the TGI (OVCAR-4 ovarian)?
The TGI was > 100 µM.

What about the TGI (786-0 renal) of the same molecule?
Its TGI is > 100 µM.

And the TGI (HOP-92 NSCLC)?
Its TGI is > 100 µM.

And the TGI (SK-MEL-28 melanoma)?
Its TGI is > 100 µM.

And the TGI (HCT-15 colon)?
Its TGI is > 100 µM.

What about the TGI (OVCAR-8 ovarian) of the same molecule?
The TGI was > 100 µM.

And the TGI (ACHN renal)?
Its TGI is > 100 µM.

And the TGI (DLD-1 colon)?
The TGI was > 100 µM.

And the TGI (A549 NSCLC)?
Its TGI is > 100 µM.

What about the TGI (SF-539 CNS) of the same molecule?
Its TGI is > 100 µM.

What about the TGI (SR leukemia) of the same molecule?
The TGI was > 100 µM.

What about the TGI (CCRF-CEM leukemia) of the same molecule?
Its TGI is > 100 µM.

What about the TGI (RPMI-8226 leukemia) of the same molecule?
Its TGI is > 100 µM.

What about the TGI (DMS 114 small cell lung) of the same molecule?
The TGI was > 100 µM.

And the TGI (SW-620 colon)?
The TGI was > 100 µM.

What about the TGI (XF 498 CNS) of the same molecule?
The TGI was > 100 µM.

And the TGI (HT29 colon)?
The TGI was > 100 µM.

What about the TGI (KM20L2 colon) of the same molecule?
The TGI was > 100 µM.

What about the TGI (NCI-H23 lung) of the same molecule?
The TGI was > 100 µM.

And the TGI (COLO 205 colon)?
The TGI was > 100 µM.

What about the TGI (EKVX NSCLC) of the same molecule?
The TGI was > 100 µM.

And the TGI (UACC-62 melanoma)?
Its TGI is 93.3 µM.

What about the TGI (HOP-62 NSCLC) of the same molecule?
The TGI was > 100 µM.

Which results are given for COc1ccc(CNc2cnc3ccc(N)cc3n2)cc1OC?
TGI (NCI-H226 lung): > 100 µM; TGI (HOP-18 NSCLC): > 100 µM; TGI (OVCAR-5 ovarian): > 100 µM; TGI (UACC-257 melanoma): > 100 µM; TGI (SNB-75 CNS): > 100 µM; TGI (SNB-78 CNS): > 100 µM; TGI (SN12C renal): > 100 µM; TGI (SF-295 CNS): > 100 µM; TGI (UO-31 renal): > 100 µM; TGI (SNB-19 CNS): > 100 µM; TGI (NCI-H522 lung): > 100 µM; TGI (SF-268 CNS): > 100 µM; TGI (MALME-3M melanoma): > 100 µM; TGI (MOLT-4 leukemia): > 100 µM; TGI (NCI-H460 lung): > 100 µM; TGI (HCC-2998 colon): > 100 µM; TGI (OVCAR-3 ovarian): > 100 µM; TGI (M14 melanoma): > 100 µM; TGI (CAKI-1 renal): > 100 µM; TGI (HL-60(TB) leukemia): > 100 µM; TGI (SK-MEL-5 melanoma): > 100 µM; TGI (K-562 leukemia): > 100 µM; TGI (M19-MEL melanoma): > 100 µM; TGI (SK-MEL-2 melanoma): > 100 µM; TGI (TK-10 renal): > 100 µM; TGI (LOX IMVI melanoma): > 100 µM; TGI (HCT-116 colon): > 100 µM; TGI (DMS 273 small cell lung): > 100 µM; TGI (KM12 colon): > 100 µM; TGI (OVCAR-4 ovarian): > 100 µM; TGI (786-0 renal): > 100 µM; TGI (SK-MEL-28 melanoma): > 100 µM; TGI (HCT-15 colon): > 100 µM; TGI (OVCAR-8 ovarian): > 100 µM; TGI (ACHN renal): > 100 µM; TGI (DLD-1 colon): > 100 µM; TGI (A549 NSCLC): > 100 µM; TGI (SF-539 CNS): > 100 µM; TGI (SR leukemia): > 100 µM; TGI (CCRF-CEM leukemia): > 100 µM; TGI (RPMI-8226 leukemia): > 100 µM; TGI (DMS 114 small cell lung): > 100 µM; TGI (SW-620 colon): > 100 µM; TGI (XF 498 CNS): > 100 µM; TGI (HT29 colon): > 100 µM; TGI (NCI-H23 lung): > 100 µM; TGI (COLO 205 colon): > 100 µM; TGI (EKVX NSCLC): > 100 µM
